# From patent publication US20050222235A1, “Drugs for improving the prognosis of brain injury and a method of screening the same” (priority 2002, published 2005)
# What was measured:
# Assay type in all cases: in vivo, mouse
# Stab wound model mice [1] = test: Stab wound model: Evans Blue dye leakage to the injured site; settings: for leakage of the dye to the injured site: Stab wound model mice, Evans Blue after 2 days
# Protocol: Degree of injury was quantified by a dye leakage (Evans Blue) to the injured site (Kakimura Y, et al., Nature Medicine, 4:1078-1080, 1998). After 2 days from injury, the maximum value was noted and, after that, it lowered as a result of recovery (refer to FIG. 20).
# An effect of BW A868C or ramatroban ((±)-(3R)-3-(4-fluorobenzenesulfonamide)-1,2,3,4-tetrahydrocarbazol-9-propionic acid) which is an antagonist for prostaglandin D receptor to Stab wound model mice was evaluated using leakage amount of dye to the injured site as an index. Thus, Evans Blue dye was intravenously administered after 2 days from occurrence of brain injury and the amount of leakage of the dye to the tissue during 2 hours thereafter was measured. When BW A868C (1 mg/kg) was intravenously administered after 3 hours and after one day from occurrence of the brain injury, leakage of the dye to the injured site was suppressed (refer to FIG. 27).
# An effect of pinagladin which is a DP receptor antagonist to a Stab wound model was evaluated by a leakage amount of dye to the injured site. Thus, Evans Blue was intravenously injected on the second day after occurrence of brain injury and leakage amount of the dye into the tissue during 2 hours thereafter was measured. As a result, when pinagladin (10 mg/kg) was orally administered before 1 hour and after one day of the occurrence of the injury, an increase in leakage amount of Evans Blue dye noted as a result of brain injury was suppressed (refer to FIG. 24).
# Stab wound model mice [2] = test: Stab wound model of traumatic brain injury: recovery / progress of brain injury (histology)
# Twitcher mice = Twitcher mice (hereditary demyelinating disease): astroglia activation and DP receptor expression; settings: subcutaneous 30 mg/kg/day for 14 days
# Source text: Changes in mRNA of H-PGDS and DP receptor as a result of demyelination were quantified by a quantitative RT-PCR method using a model mouse Twitcher of human Krabbe diseases which is a disease where galactosylceramidase is deficient (Kobayashi T, et al., Brain Res., 202:479-483, 1980; Duchen L W, et al., Brain, 103:695-710, 1980; Sakai N, et al., J. Neurochem., 66:1118-1124, 1996; Taniike M et al., J. Neuropathol. Exp. Neurol., 58:644-653, 1999) (refer to FIG. 1). Expression of mRNA of both H-PGDS and DP receptor increased as a result of demyelination.
# HQL-79 (4-benzhydryloxy-1-{3-(1H-tetrazol-5-yl)-propyl}piperidine) which is an H-PGDS inhibitor was subcutaneously administered to Twitcher mice at the dose of 30 mg/kg/day for 14 days whereupon activation of astroglia cells was suppressed and, at the same time, expression of DP receptor in astroglia cells lowered (refer to FIG. 13).
# DP receptor = test: Stab wound model: DP receptor mRNA in tissue injury region; settings: oral 30 mg/kg/day for 4 days from one hour before injuring
# [3] = traumatic brain injury, administration started after 24 hours from injury
smiles,measurement,setting,value
"O=C(O)CCCCCCC1C(=O)N(Cc2ccccc2)C(=O)N1NCC(O)C1CCCCC1 (racemic) [BW A868C, (±)-3-benzyl-5-(6-carboxyhexyl)-1-(2-cyclohexyl-2-hydroxyethylamino)-hydantoin]",leakage of the dye to the injured site,"Stab wound model mice [1]; 1 mg/kg intravenous after 3 hours and after one day from injury, leakage during 2 hours",suppressed
same,recovery of brain injury,"Stab wound model mice [2]; Stab wound model mice, intravenous 1 mg/kg/day for 4 days from the initial day of injury",promotion of recovery
"c1ccc(C(OC2CCN(CCCc3nnn[nH]3)CC2)c2ccccc2)cc1 [HQL-79, 4-benzhydryloxy-1-{3-(1H-tetrazol-5-yl)-propyl}piperidine]",leakage reaction of dye to the injured site,"Stab wound model mice [1]; Stab wound model, oral 30 mg/kg/day, administration started one hour before injury",therapeutic effect was also confirmed
same,tissue injury (leakage of dye),Stab wound model mice [1]; [3],inhibitory effect
same,activation of astroglia cells,Twitcher mice,suppressed
same,expression of DP receptor in astroglia cells,Twitcher mice,lowered
same,recovery of brain injury,"Stab wound model mice [2]; Stab wound model, oral 30 mg/kg/day for 4 days from one hour before injuring",promotion of recovery
same,tissue injury (expansion of injury),Stab wound model mice [2]; [3],inhibitory effect
same,amount of mRNA of DP receptor in tissue injury region,DP receptor,lowered
"CC1(C)[C@H]2C[C@H](C/C=C\CCCC(=O)O)[C@@H](NC(=O)c3csc4ccccc34)[C@@H]1C2 [pinagladin, (Z)-7-[(1R,2R,3S,5S)-2-(benzo[b]-thiophene-3-ylcarbonylamino)-10-norpinan-3-yl]hepta-5-enoic acid]",increase in leakage amount of Evans Blue dye as a result of brain injury,"Stab wound model mice [1]; Stab wound model, 10 mg/kg oral before 1 hour and after one day of injury, Evans Blue on second day, leakage during 2 hours",suppressed
same,progress of brain injury (histopathological investigation),"Stab wound model mice [2]; Stab wound model, in any of administration routes",suppressed the progress of brain injury
"O=C(O)CCn1c2c(c3ccccc31)C[C@H](NS(=O)(=O)c1ccc(F)cc1)CC2 [ramatroban, (+)-(3R)-3-(4-fluorobenzenesulfonamide)-1,2,3,4-tetrahydrocarbazol-9-propionic acid]",leakage of the dye to the injured site,"Stab wound model mice [1]; 30 mg/kg oral after 3 hours and after one day from injury, leakage during 2 hours",suppressed
